From paper PMC10482975 (Nature Communications, 2023)
Changes are numbered by the printed parent chain. Like-named read-outs stand apart in the source and are kept apart here.

What was measured:
M4 mAChR Y89A = molecular target: T1, M4 mAChR Y89A (Homo sapiens, UniProt P08173, Y89A); experiment: [3H]-NMS radioligand dissociation binding, M4 mAChR Y89A; design: [3H]-NMS binding remaining vs Total Binding, MEAN: unit not given here; details: for [3H]-NMS binding remaining vs Total Binding, MEAN: M4 Y89A mAChR; for effect on [3H]-NMS dissociation (in words): M4 mAChR Y89A mutant
T1 construct: expressed in transfected cells
T1 sequence (P08173 1-479 Y89A): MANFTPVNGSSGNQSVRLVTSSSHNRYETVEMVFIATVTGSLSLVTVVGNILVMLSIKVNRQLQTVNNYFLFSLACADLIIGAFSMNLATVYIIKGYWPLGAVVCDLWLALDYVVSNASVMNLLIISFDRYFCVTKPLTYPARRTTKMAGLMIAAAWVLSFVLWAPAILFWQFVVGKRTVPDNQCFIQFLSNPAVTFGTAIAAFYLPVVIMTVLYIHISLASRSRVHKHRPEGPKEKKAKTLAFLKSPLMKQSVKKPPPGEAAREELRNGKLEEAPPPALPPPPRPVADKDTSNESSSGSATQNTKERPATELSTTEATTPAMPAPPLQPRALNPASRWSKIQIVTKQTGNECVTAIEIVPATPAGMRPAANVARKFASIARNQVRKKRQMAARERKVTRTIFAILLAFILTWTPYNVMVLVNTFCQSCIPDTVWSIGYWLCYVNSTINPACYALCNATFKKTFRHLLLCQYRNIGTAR
Procedure: (§1) Flp-In Chinese hamster ovary (CHO) (Thermo Fisher Scientific) cells stably expressing mAChR WTs or mutant constructs were cultured in Dulbecco’s modified Eagle’s medium (DMEM, Invitrogen) containing 5% foetal bovine serum (FBS; ThermoTrace) and […] of hygromycin (Roche) in a humidified incubator (37 °C, 5% CO2). Upon reaching confluence, media was removed, cells were washed with phosphate buffered saline (PBS) and harvested from tissue culture flasks using versene (PBS with 0.2 g EDTA). Cells were then pelleted through centrifugation at 350 × g for three minutes followed by resuspension in DMEM + 5% FBS. Cells were then either plated for an assay or reseeded into a tissue culture flask.

M4 mAChR Y92A = molecular target: T2, M4 mAChR Y92A (Homo sapiens, UniProt P08173, Y92A); experiment: [3H]-NMS radioligand dissociation binding, M4 mAChR Y92A; design: [3H]-NMS binding remaining vs Total Binding, MEAN: unit not given here; details: for [3H]-NMS binding remaining vs Total Binding, MEAN: M4 Y92A mAChR
T2 construct: expressed in transfected cells
T2 sequence (P08173 1-479 Y92A): T1 sequence (P08173 1-479 Y89A) with A89Y, Y92A
Procedure: as §1

M1 mAChR WT = molecular target: T3, M1 mAChR WT (Homo sapiens, UniProt P11229); assay type: binding
T3 construct: expressed in transfected cells
T3 sequence (P11229 1-460): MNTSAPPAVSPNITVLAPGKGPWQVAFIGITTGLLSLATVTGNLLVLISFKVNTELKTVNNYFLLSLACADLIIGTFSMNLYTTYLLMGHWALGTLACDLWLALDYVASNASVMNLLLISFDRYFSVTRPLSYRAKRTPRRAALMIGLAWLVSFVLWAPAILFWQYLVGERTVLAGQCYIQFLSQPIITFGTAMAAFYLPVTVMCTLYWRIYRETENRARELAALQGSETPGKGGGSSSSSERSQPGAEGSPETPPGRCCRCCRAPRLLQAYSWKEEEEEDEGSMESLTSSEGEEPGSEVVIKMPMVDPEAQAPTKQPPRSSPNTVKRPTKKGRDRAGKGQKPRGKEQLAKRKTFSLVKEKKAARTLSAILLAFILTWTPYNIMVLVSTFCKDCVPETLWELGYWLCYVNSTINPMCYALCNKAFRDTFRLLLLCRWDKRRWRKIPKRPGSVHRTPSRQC
Procedure: as §1

M2 mAChR WT = molecular target: T4, M2 mAChR WT (Homo sapiens, UniProt P08172); experiment: [3H]-NMS radioligand dissociation binding, M2 mAChR WT
T4 construct: expressed in transfected cells
T4 sequence (P08172 1-466): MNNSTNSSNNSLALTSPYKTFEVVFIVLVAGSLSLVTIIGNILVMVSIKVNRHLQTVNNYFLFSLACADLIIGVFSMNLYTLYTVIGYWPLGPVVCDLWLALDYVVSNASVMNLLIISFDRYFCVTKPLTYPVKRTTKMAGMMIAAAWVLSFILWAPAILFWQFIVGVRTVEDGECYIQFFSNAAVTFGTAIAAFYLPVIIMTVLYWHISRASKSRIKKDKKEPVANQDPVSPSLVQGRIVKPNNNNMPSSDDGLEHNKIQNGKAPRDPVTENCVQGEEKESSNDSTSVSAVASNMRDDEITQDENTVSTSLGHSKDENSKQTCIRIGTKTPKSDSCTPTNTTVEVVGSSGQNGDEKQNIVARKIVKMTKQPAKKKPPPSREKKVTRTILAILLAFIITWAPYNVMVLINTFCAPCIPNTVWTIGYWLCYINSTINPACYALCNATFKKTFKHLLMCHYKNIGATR
Procedure: as §1

[1] = + 10uM LY2033 (Allosteric Ligand), Time 0 min (Total Binding)
[2] = + 10uM LY2033 (Allosteric Ligand), Time 30 min
[3] = + 10uM LY2033 (Allosteric Ligand), Time 60 min
[4] = + 10uM LY2033 (Allosteric Ligand), Time 90 min
[5] = + 10uM LY2033 (Allosteric Ligand), Time 120 min
[6] = + 10uM LY2033 (Allosteric Ligand), Time 180 min
[7] = + 10uM LY2033 (Allosteric Ligand), Time 300 min
[8] = 10uM Atr + 10 μM Iperoxo, 10 min
[9] = 10uM Atr + 10 μM Iperoxo, 40 min
[10] = 10uM Atr + 10 μM Iperoxo, 60 min
[11] = 10uM Atr + 10 μM Iperoxo, 90 min

COc1nc2sc(C(=O)NC3CC3)c(N)c2c(C)c1Cl [LY2033298]
[3H]-NMS binding remaining vs Total Binding, MEAN (M4 mAChR Y89A; [1]): 100.077 | [3H]-NMS binding remaining vs Total Binding, MEAN (M4 mAChR Y89A; [2]): 111.396 | [3H]-NMS binding remaining vs Total Binding, MEAN (M4 mAChR Y89A; [3]): 121.467 | [3H]-NMS binding remaining vs Total Binding, MEAN (M4 mAChR Y89A; [4]): 123.726 | [3H]-NMS binding remaining vs Total Binding, MEAN (M4 mAChR Y89A; [5]): 111.892 | [3H]-NMS binding remaining vs Total Binding, MEAN (M4 mAChR Y89A; [6]): 116.814 | [3H]-NMS binding remaining vs Total Binding, MEAN (M4 mAChR Y89A; [7]): 102.533 | effect on [3H]-NMS dissociation (in words) (M4 mAChR Y89A): the same effect was observed | [3H]-NMS binding remaining vs Total Binding, MEAN (M4 mAChR Y92A; [1]): 100 | [3H]-NMS binding remaining vs Total Binding, MEAN (M4 mAChR Y92A; [2]): 108.824 | [3H]-NMS binding remaining vs Total Binding, MEAN (M4 mAChR Y92A; [3]): 96.2598 | [3H]-NMS binding remaining vs Total Binding, MEAN (M4 mAChR Y92A; [4]): 94.6146 | [3H]-NMS binding remaining vs Total Binding, MEAN (M4 mAChR Y92A; [5]): 83.2371 | [3H]-NMS binding remaining vs Total Binding, MEAN (M4 mAChR Y92A; [6]): 74.311 | [3H]-NMS binding remaining vs Total Binding, MEAN (M4 mAChR Y92A; [7]): 49.3255 | [3H]-NMS binding remaining (0 min = 100), MEAN (M1 mAChR WT; 10uM Atr + 30uM LY2033, 10 min): 100.177 | [3H]-NMS binding remaining (0 min = 100), MEAN (M1 mAChR WT; 10uM Atr + 30uM LY2033, 20 min): 95.7624 | [3H]-NMS binding remaining (0 min = 100), MEAN (M1 mAChR WT; 10uM Atr + 30uM LY2033, 40 min): 97.3513 | [3H]-NMS binding remaining (0 min = 100), MEAN (M1 mAChR WT; 10uM Atr + 30uM LY2033, 60 min): 85.8605 | [3H]-NMS binding remaining (0 min = 100), MEAN (M1 mAChR WT; 10uM Atr + 30uM LY2033, 90 min): 73.8671 | [3H]-NMS binding remaining (0 min = 100), MEAN (M1 mAChR WT; 10uM Atr + 30uM LY2033, 120 min): 62.858 | [3H]-NMS binding remaining (0 min = 100), MEAN (M2 mAChR WT; 10uM Atr + 30uM LY2033, 5 min): 100.231 | [3H]-NMS binding remaining (0 min = 100), MEAN (M2 mAChR WT; 10uM Atr + 30uM LY2033, 10 min): 104.86 | [3H]-NMS binding remaining (0 min = 100), MEAN (M2 mAChR WT; 10uM Atr + 30uM LY2033, 15 min): 105.465 | [3H]-NMS binding remaining (0 min = 100), MEAN (M2 mAChR WT; 10uM Atr + 30uM LY2033, 30 min): 97.2904 | [3H]-NMS binding remaining (0 min = 100), MEAN (M2 mAChR WT; 10uM Atr + 30uM LY2033, 40 min): 99.7247 | [3H]-NMS binding remaining (0 min = 100), MEAN (M2 mAChR WT; 10uM Atr + 30uM LY2033, 60 min): 83.2953 | [3H]-NMS binding remaining (0 min = 100), MEAN (M2 mAChR WT; 10uM Atr + 30uM LY2033, 90 min): 74.9771

C[N+](C)(C)CC#CCOC1=NOCC1 [iperoxo]
[3H]-NMS binding remaining (0 min = 100), MEAN (M1 mAChR WT; [8]): 87.0617 | [3H]-NMS binding remaining (0 min = 100), MEAN (M1 mAChR WT; 10uM Atr + 10 μM Iperoxo, 20 min): 66.0557 | [3H]-NMS binding remaining (0 min = 100), MEAN (M1 mAChR WT; [9]): 41.8921 | [3H]-NMS binding remaining (0 min = 100), MEAN (M1 mAChR WT; [10]): 27.7899 | [3H]-NMS binding remaining (0 min = 100), MEAN (M1 mAChR WT; [11]): 20.387 | [3H]-NMS binding remaining (0 min = 100), MEAN (M1 mAChR WT; 10uM Atr + 10 μM Iperoxo, 120 min): 14.5109 | [3H]-NMS binding remaining (0 min = 100), MEAN (M2 mAChR WT; 10uM Atr + 10 μM Iperoxo, 5 min): 84.1199 | [3H]-NMS binding remaining (0 min = 100), MEAN (M2 mAChR WT; [8]): 57.067 | [3H]-NMS binding remaining (0 min = 100), MEAN (M2 mAChR WT; 10uM Atr + 10 μM Iperoxo, 15 min): 42.2975 | [3H]-NMS binding remaining (0 min = 100), MEAN (M2 mAChR WT; 10uM Atr + 10 μM Iperoxo, 30 min): 18.0197 | [3H]-NMS binding remaining (0 min = 100), MEAN (M2 mAChR WT; [9]): 11.4621 | [3H]-NMS binding remaining (0 min = 100), MEAN (M2 mAChR WT; [10]): 5.852 | [3H]-NMS binding remaining (0 min = 100), MEAN (M2 mAChR WT; [11]): 5.287

CCCCCCOc1nsnc1C1=CCCN(C)C1 [xanomeline]
[3H]-NMS binding remaining vs Total Binding, MEAN (M4 mAChR Y89A; +100uM Xano, Time 30 min): 98.3579 | [3H]-NMS binding remaining vs Total Binding, MEAN (M4 mAChR Y89A; +100uM Xano, Time 60 min): 102.694 | [3H]-NMS binding remaining vs Total Binding, MEAN (M4 mAChR Y89A; +100uM Xano, Time 90 min): 104.852 | [3H]-NMS binding remaining vs Total Binding, MEAN (M4 mAChR Y89A; +100uM Xano, Time 120 min): 120.479 | [3H]-NMS binding remaining vs Total Binding, MEAN (M4 mAChR Y89A; +100uM Xano, Time 300 min): 77.2149 | effect on [3H]-NMS dissociation (in words) (M4 mAChR Y89A): improved ability | [3H]-NMS binding remaining vs Total Binding, MEAN (M4 mAChR Y92A; +100uM Xano, Time 30 min): 84.6188 | [3H]-NMS binding remaining vs Total Binding, MEAN (M4 mAChR Y92A; +100uM Xano, Time 60 min): 76.9087 | [3H]-NMS binding remaining vs Total Binding, MEAN (M4 mAChR Y92A; +100uM Xano, Time 90 min): 63.0845 | [3H]-NMS binding remaining vs Total Binding, MEAN (M4 mAChR Y92A; +100uM Xano, Time 120 min): 54.6505 | [3H]-NMS binding remaining vs Total Binding, MEAN (M4 mAChR Y92A; +100uM Xano, Time 300 min): 15.7486 | effect on [3H]-NMS dissociation (in words) (M4 mAChR Y92A; M4 mAChR Y92A mutant): loss in xanomeline modulation | allosteric effect on [3H]-NMS dissociation (in words) (M2 mAChR WT): more pronounced
